Experimental data as given in patent US20220319656A1, “AUTOMATED LITERATURE META ANALYSIS USING HYPOTHESIS GENERATORS AND AUTOMATED SEARCH” (TECHNION RESEARCH & DEVELOPMENT FOUNDATION, priority 2019, published 2022).

Legend:
MG63 = assay: Cell viability assay (MTT), in vitro screen, MG63 cells; assay type: cell-based, Human; settings: 72 h
Protocol: Human osteosarcoma MG-63, U2OS cell lines were kind gift from David Meiri, and head and neck FaDu cell line were a kind gift of Moshe Elkabetz. These cells were incubated under standard conditions of 37° C., 5% CO2, and 95% humidity. MG-63 and U2OS cells were cultured in RPMI-1640 (Biological Industries) containing 10% fetal bovine serum, 2 mM L-Glutamine (Biological Industries) and 1% penicillin/streptomycin (Biological Industries).
5000 cells per well in 0.2 ml growth media were seeded in a 96-well plate and allowed to attach for 24 hours. After 24 hours the cells were exposed to logarithmic gradient of drugs (Gemcitabine, Sorafenib, Nilotinib, Carfilzomib, Nintedanib, Trametinib, Cabozantinib, Ponatinib, Infigratinib, Duvelisib).
Cell survival for the cell lines was assayed after 3 days from adding the drugs. For the U20S and MG-63 by adding […] (5 mg/ml) in DDW to each well. After 3 hours, the solution was removed and 200 μl of DMSO was added. For the Fadu cell line by adding 30 μl of MTT solution (5 mg/ml) in DDW to each well. After 1 hour, the solution was removed and 100 μl of DMSO was added to dissolve the formazan crystals. Cell viability was evaluated by measuring the absorbance of each well using a Synergy H1 (BioTek) plate reader at 570 nm relative to control wells.

Fadu cells = assay type: cell-based; settings: 72 h
Protocol: FaDu cell line were cultured in DMEM (Biological Industries) containing 10% fetal bovine serum, 2 mM L-Glutamine (Biological Industries) and 1% penicillin/streptomycin (Biological Industries). 5000 cells per well in 0.2 ml growth media were seeded in a 96-well plate and allowed to attach for 24 hours. After 24 hours the cells were exposed to logarithmic gradient of drugs (Gemcitabine, Sorafenib, Nilotinib, Carfilzomib, Nintedanib, Trametinib, Cabozantinib, Ponatinib, Infigratinib, Duvelisib). Cell survival for the cell lines was assayed after 3 days from adding the drugs. For the U20S and MG-63 by adding […] (5 mg/ml) in DDW to each well. After 3 hours, the solution was removed and 200 μl of DMSO was added. For the Fadu cell line by adding 30 μl of MTT solution (5 mg/ml) in DDW to each well. After 1 hour, the solution was removed and 100 μl of DMSO was added to dissolve the formazan crystals. Cell viability was evaluated by measuring the absorbance of each well using a Synergy H1 (BioTek) plate reader at 570 nm relative to control wells.

[1] = from a short literature review; cited from earlier work

Structure (SMILES)	potency / growth inhibition in the in-vitro screen (MG63)	sensitivity of cells to free drug and nanoparticle formulation (MG63)	cytotoxicity (MG63; low nanomolar concentrations)	potency in the in-vitro screen (Fadu cells; Fadu cells, MTT)	sensitivity of cells to free drug and nanoparticle formulation (Fadu cells; Fadu cells, MTT)	cytotoxicity (Fadu cells; human) [%]	effectiveness versus chemotherapy combination of pemetrexed and cisplatin [1]
CC(C)C[C@H](NC(=O)[C@H](CCc1ccccc1)NC(=O)CN1CCOCC1)C(=O)N[C@@H](Cc1ccccc1)C(=O)N[C@@H](CC(C)C)C(=O)[C@@]1(C)CO1 [carfilzomib]	most potent compound	extremely sensitive	more than 95%	most potent molecule	less sensitive	64	–
C=CC(=O)Nc1cc(Nc2nccc(-c3cn(C)c4ccccc34)n2)c(OC)cc1N(C)CCN(C)C [osimertinib]	–	–	–	–	–	–	more effective
